Measurements: patent publication US10092493B2, “Composition of skin external application for anti-aging” (AMOREPACIFIC CORPORATION, priority 2005, dated 2018)

Columns and labels:
[1] = molecular target: T1, PPAR-α (Peroxisome Proliferator Activated Receptor-alpha) (Homo sapiens, UniProt Q07869); experiment: Activation of PPAR-α, luciferase reporter in CV-1 cells; type: cell-based; conditions: 24 hours, negative control and non-treated group = 1.0
T1 construct: expressed in transfected cells; host or cells: CV-1 monkey kidney epithelial cells (ATCC CCL 70)
T1 sequence (Q07869 1-468): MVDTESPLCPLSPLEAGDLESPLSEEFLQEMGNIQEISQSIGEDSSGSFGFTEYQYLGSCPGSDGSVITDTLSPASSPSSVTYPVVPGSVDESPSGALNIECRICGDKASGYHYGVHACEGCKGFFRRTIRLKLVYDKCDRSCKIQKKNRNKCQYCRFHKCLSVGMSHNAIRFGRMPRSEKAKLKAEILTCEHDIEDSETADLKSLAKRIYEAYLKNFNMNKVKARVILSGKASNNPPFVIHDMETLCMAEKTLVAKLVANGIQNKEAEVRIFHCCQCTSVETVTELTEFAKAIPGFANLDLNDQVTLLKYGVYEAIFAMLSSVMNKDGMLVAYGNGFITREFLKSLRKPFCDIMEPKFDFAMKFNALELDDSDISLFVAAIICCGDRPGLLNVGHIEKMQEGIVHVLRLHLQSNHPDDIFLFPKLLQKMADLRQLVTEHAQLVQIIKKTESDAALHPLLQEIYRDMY
Description: Monkey kidney epithelial cell line CV-1 (ATCC CCL 70) was subcultured in a DMEM medium containing 10% fetal bovine serum treated with charcol/dextran, which was a phenol red-free medium to remove the effect by estrogen of phenol red.
CV-1 cells were distributed in a 24-well plate type incubator at a concentration of 5×10^4. After 24 hours cultivation, the 3 different plasmids were transient transfected. After 24 hours cultivation, the plate was washed with 1×PBS (Phosphate Buffered Saline) and treated with ligand candidates at various concentrations. After 24 hours cultivation, the plate was washed with 1×PBS and the cells were lyzed with 1×PLB (Passive Lysis Buffer) and measured for luciferase activity using Dual-Luciferase® Reporter Assay System kit.

[2] = tested on: Tumor Necrosis Factor alpha (TNF-α); experiment: Inhibition of TNF-α biosynthesis after UV irradiation (ELISA); type: cell-based; conditions: human keratinocytes, UV-B 30 mJ/cm^2, 10 μM (10 ppm of extract), 6 to 24 hours; UV control = 100
Description: Human keratinocytes were cultured in a 12-well plate type incubator at a concentration of 10^4. The plate was irradiated by UV-B at 30 mJ/cm^2. The media were exchanged with new medium containing 10 μM of each test substance (10 ppm of extract). After 6 to 24 hours of cultivation, the cells were harvested and subjected to ELISA (Pharmingen 555212) to determine the amount of produced tumor necrosis factor α (TNF-α). As the positive control, Wy-14,643 was used.

[3] = tested on: Type I Collagenase (MMP-1); experiment: Inhibition of type I collagenase (MMP-1) biosynthesis after UV-A irradiation, test substances (ELISA); type: cell-based; conditions: new born human fibroblasts, UV-A 15 J/cm^2, 10 μM or 10 ppm, UV negative control = 100; for Type I collagenase biosynthesis (%), UV-A + TNF-α treated group: plus TNF-α 10 ng/ml
Description: To describe the experiment method in detail, human fibroblasts isolated from the skin of a new born baby were cultured in a 48-well plate type incubator at a concentration of 10^4. After 24 hours, the plate was irradiated by UV-A at 15 J/cm^2. […] At the second day of cultivation, the supernatants were harvested and subjected to ELISA (AP biotech RPN2610) to determine the amount of produced type I collagenase. As the positive control, Wy-14,643 and retinoic acid (RA) were used.

[4] = tested on: pro-collagen; experiment: Biosynthesis of collagen (pro-collagen ELISA) in fibroblasts; type: cell-based, Human; conditions: 48 hours, un-treated control = 100
Description: Human fibroblasts were cultured in a 48-well plate type incubator at a concentration of 10^4. The media were exchanged with new medium (theanine: 1, 10, 100 um) containing each test substance of Table 7 at a concentration of 0.001 μM, 0.01 μM, 0.1 μM, 0.5 μM and 2 μM. After 48 hours of cultivation, each supernatant was harvested and subjected to ELISA (Takara MK101) to measure the amount of produced pro-collagen.
Also, in order to examine the synergic effect of theanine on collagen biosynthesis, theanine 10 μM was added to catechin at different 4 concentrations and the result is shown in Table 8.

[5] = tested on: MMP-2; experiment: Inhibition of MMP-2 biosynthesis after UV irradiation (gelatin zymography); type: cell-based; conditions: human keratinocytes, UV-B 30 mJ/cm^2, 10 ppm test substance, 2 days; UV control = 100
Description: (§1) After 24 hours, the plate was irradiated by UV-B at 30 mJ/cm^2. The media were exchanged with new medium containing 10 ppm of each test substance. After 2 days of cultivation, each supernatant was harvested and subjected to the zymography using gelatine gel to obtain produced MMP-2 and MMP-9, quantities of which were then measured by a densitometer.

[6] = tested on: MMP-9; experiment: Inhibition of MMP-9 biosynthesis after UV irradiation (gelatin zymography); type: cell-based; conditions: human keratinocytes, UV-B 30 mJ/cm^2, 10 ppm test substance, 2 days; UV control = 100
Description: as §1

[7] = tested on: type IV collagen; experiment: Biosynthesis of type IV collagen in keratinocytes (Dot Blot); type: cell-based; conditions: human keratinocytes, 10 ppm, 24 hours; control = 100
Description: The media were exchanged with new medium containing 10 ppm of each test substance. After 24 hours of cultivation, each supernatant was harvested and subjected to the Dot Blot method to measure the amount of produced type IV collagen.

[8] = tested on: type VII collagen; experiment: Biosynthesis of type VII collagen in fibroblasts (Dot Blot); type: cell-based; conditions: human fibroblasts, 10 ppm, 24 hours; control = 100
Description: The media were exchanged with new medium containing 10 ppm of each test substance. After 24 hours of cultivation, each supernatant was harvested and subjected to the Dot Blot method to measure the amount of produced type VII collagen.

[9] = tested on: laminin 10/11; experiment: Biosynthesis of laminin 10/11 in keratinocytes (Western Blot); type: cell-based; conditions: human keratinocytes, 10 ppm, 24 hours; control = 100
Description: Human keratinocytes were cultured in a 24-well plate type incubator at a concentration of 5×10^4. The media were exchanged with new medium containing 10 ppm of each test substance. After 24 hours of cultivation, each supernatant was harvested and subjected to the Western Blot method to measure the amount of produced laminin 10/11.

Structure (SMILES) | PPAR-α activity ([1]; 10 μM) | PPAR-α activity ([1]; 100 μM) | TNF-α biosynthesis (%) [2] | Type I collagenase biosynthesis (%), UV-A + TNF-α treated group [3] | Type I collagenase biosynthesis (%), UV-A irradiated group [3] | further results
Oc1cc(O)c2c(c1)OC(c1ccc(O)c(O)c1)C(O)C2 (single isomer, unassigned; (-)) [(−) C, (−)catechin] | 1.4 | 1.2 | – | – | – | –
Oc1cc(O)c2c(c1)O[C@H](c1ccc(O)c(O)c1)[C@@H](O)C2 [(+) C, (+)catechin] | 1.5 | 1.4 | 40% | 86% | 45% | –
Oc1cc(O)c2c(c1)O[C@@H](c1ccc(O)c(O)c1)[C@@H](O)C2 [(+) EC, (+)epicatechin] | 1.3 | 1.2 | – | – | – | –
Oc1cc(O)c2c(c1)O[C@H](c1ccc(O)c(O)c1)[C@H](O)C2 [(−) EC, (−)epicatechin] | 1.2 | 1.2 | – | – | – | –
O=C(O[C@@H]1Cc2c(O)cc(O)cc2O[C@@H]1c1ccc(O)c(O)c1)c1cc(O)c(O)c(O)c1 [(−) ECG, epicatechin gallate] | 1.1 | 1.6 | 32% | 87% | 45% | Collagen biosynthesis ([4]; 0.001 μM): 100.5; Collagen biosynthesis ([4]; 0.01 μM): 181.7; Collagen biosynthesis ([4]; 0.1 μM): 165.3; Collagen biosynthesis ([4]; 0.5 μM): 124.5; Collagen biosynthesis ([4]; 2 μM): 77.8
Oc1cc(O)c2c(c1)O[C@H](c1cc(O)c(O)c(O)c1)[C@H](O)C2 [(−) EGC, epigallocatechin] | 1.3 | 1.0 | – | – | – | –
Oc1cc(O)c2c(c1)O[C@H](c1cc(O)c(O)c(O)c1)[C@@H](O)C2 [(−) GC, gallocatechin] | 1.1 | 1.0 | – | – | – | –
O=C(O[C@@H]1Cc2c(O)cc(O)cc2O[C@H]1c1ccc(O)c(O)c1)c1cc(O)c(O)c(O)c1 [CG, catechin gallate] | 1.2 | 1.6 | 37% | 89% | 53% | MMP-2 (%) [5]: 53%; MMP-9 (%) [6]: 55%; Type IV collagen biosynthesis (%) [7]: 134%; type VII collagen biosynthesis (%) [8]: 124%; laminin 10/11 biosynthesis (%) [9]: 129%; Collagen biosynthesis ([4]; 0.001 μM): 104.3; Collagen biosynthesis ([4]; 0.01 μM): 118.5; Collagen biosynthesis ([4]; 0.1 μM): 124.9; Collagen biosynthesis ([4]; 0.5 μM): 118.9; Collagen biosynthesis ([4]; 2 μM): 80.3
Cn1c(=O)c2c(ncn2C)n(C)c1=O [Caffeine, reference compound] | 1.3 | 1.6 | 39% | 91% | 58% | –
O=C(O)c1cc(O)c(O)c(O)c1 [Gallic acid] | 1.3 | 1.7 | 36% | 89% | 52% | –
O=c1c(O)c(-c2ccc(O)cc2)oc2cc(O)cc(O)c12 [Kaempferol, kaempferol] | 1.7 | 1.4 | 41% | 94% | 48% | –
O=c1c(O)c(-c2cc(O)c(O)c(O)c2)oc2cc(O)cc(O)c12 [Myricetin, myricetin] | 1.7 | 1.6 | 36% | 97% | 52% | MMP-2 (%) [5]: 51%; MMP-9 (%) [6]: 55%; Type IV collagen biosynthesis (%) [7]: 139%; type VII collagen biosynthesis (%) [8]: 125%; laminin 10/11 biosynthesis (%) [9]: 132%
O=c1c(O)c(-c2ccc(O)c(O)c2)oc2cc(O)cc(O)c12 [Quercetin, quercetin] | 1.7 | 2.3 | 27% | 91% | 35% | –
O=C(O)[C@]1(O)C[C@@H](O)[C@@H](O)[C@H](O)C1 [Quinic acid] | 1.3 | 1.7 | 35% | 98% | 75% | –
CC1=C(/C=C/C(C)=C/C=C/C(C)=C/C(=O)O)C(C)(C)CCC1 [RA, retinoic acid, reference compound] | – | – | – | 86% | 48% | –
CCNC(=O)CC[C@H](N)C(=O)O [Theanine] | 1.8 | 1.9 | 30% | 95% | 60% | Collagen biosynthesis ([4]; 10 μM): 132.1; Collagen biosynthesis ([4]; 100 μM): 167.5
Cn1cnc2c1c(=O)[nH]c(=O)n2C [Theobromine] | 2.2 | 4.5 | 25% | 90% | 32% | –
Cn1c(=O)c2[nH]cnc2n(C)c1=O [Theophylline, reference compound] | 1.4 | 1.7 | 36% | 92% | 40% | –
Cc1cccc(Nc2cc(Cl)nc(SCC(=O)O)n2)c1C [Wy14643, Wy-14,643, reference compound] | 3.8 | – | 30% | 92% | 60% | PPAR-α activity ([1]; 0.1 μM): 1.5; PPAR-α activity ([1]; 1 μM): 2.6
